Measured values reported in the supplement of paper PMC10307832.

Assays:
Assay in all cases: relative viability (nuclei count vs DMSO), 5 days (fraction); higher = more cells survive
R406 + Luminespib = compound: COc1cc(Nc2ncc(F)c(Nc3ccc4c(n3)NC(=O)C(C)(C)O4)n2)cc(OC)c1OC [R406] + CCNC(=O)c1noc(-c2cc(C(C)C)c(O)cc2O)c1-c1ccc(CN2CCOCC2)cc1 [Luminespib] (partner 0.01 µM)
How it was run: (§1)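 Five library-drug doses in √10 steps were combined with a fixed anchor-drug dose, or a single drug was given alone, by pin tool to lung cancer cell lines in 1536-well plates the day after seeding. Nuclei were stained and counted after 5 days. Relative viability is the nuclei count in treated wells over that in vehicle wells, taken as the median of duplicate plates.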

R406 + OSI-027 = compound: COc1cc(Nc2ncc(F)c(Nc3ccc4c(n3)NC(=O)C(C)(C)O4)n2)cc(OC)c1OC [R406] + COc1cccc2cc(-c3nc([C@H]4CC[C@H](C(=O)O)CC4)n4ncnc(N)c34)[nH]c12 [OSI-027] (partner 0.5 µM)
How it was run: as §1

R406 + Tozasertib = compound: COc1cc(Nc2ncc(F)c(Nc3ccc4c(n3)NC(=O)C(C)(C)O4)n2)cc(OC)c1OC [R406] + Cc1cc(Nc2cc(N3CCN(C)CC3)nc(Sc3ccc(NC(=O)C4CC4)cc3)n2)n[nH]1 [Tozasertib] (partner 0.1 µM)
How it was run: as §1

R406 + Dasatinib = compound: COc1cc(Nc2ncc(F)c(Nc3ccc4c(n3)NC(=O)C(C)(C)O4)n2)cc(OC)c1OC [R406] + Cc1nc(Nc2ncc(C(=O)Nc3c(C)cccc3Cl)s2)cc(N2CCN(CCO)CC2)n1 [Dasatinib] (partner 0.075 µM)
How it was run: as §1

Work on UMC-11 yielded a relative viability (R406 + Luminespib; first compound 0.08 µM) of 1.09, a relative viability (R406 + Luminespib; first compound 0.253 µM) of 1.07 and a relative viability (R406 + Luminespib; first compound 0.8 µM) of 1.12. For the same cell line, the relative viability (R406 + Luminespib; first compound 2.53 µM) was 0.835, the relative viability (R406 + Luminespib; first compound 8 µM) was 0.418 and the relative viability (R406 + OSI-027; first compound 0.08 µM) was 0.429. The relative viability (R406 + OSI-027; first compound 0.253 µM) was 0.517, the relative viability (R406 + OSI-027; first compound 0.8 µM) was 0.488 and the relative viability (R406 + OSI-027; first compound 2.53 µM) was 0.463. The relative viability (R406 + OSI-027; first compound 8 µM) was 0.253, the relative viability (R406 + Tozasertib; first compound 0.08 µM) was 0.203 and the relative viability (R406 + Tozasertib; first compound 0.253 µM) was 0.207. The relative viability (R406 + Tozasertib; first compound 0.8 µM) was 0.205, the relative viability (R406 + Tozasertib; first compound 2.53 µM) was 0.25 and the relative viability (R406 + Tozasertib; first compound 8 µM) was 0.185. The relative viability (R406 + Dasatinib; first compound 0.08 µM) was 0.466, the relative viability (R406 + Dasatinib; first compound 0.253 µM) was 0.572 and the relative viability (R406 + Dasatinib; first compound 0.8 µM) was 0.519. It also gave a relative viability (R406 + Dasatinib; first compound 2.53 µM) of 0.459 and a relative viability (R406 + Dasatinib; first compound 8 µM) of 0.342.
